Experimental data: article PMC8223498 (Journal of Fluorine Chemistry, 2021)

Assays:
Format in all cases: biochemical
[1] = target: T1, human N-terminally His6-tagged AspH315–758 (Homo sapiens, UniProt Q12797); assay: SPE-MS inhibition assay, AspH (peptide hydroxylation); conditions: 0.05 μM His6-AspH315–758, 1.0 μM hFX-CP101–119 peptide, n = 2, mean ± SD
T1 sequence (Q12797 315-758): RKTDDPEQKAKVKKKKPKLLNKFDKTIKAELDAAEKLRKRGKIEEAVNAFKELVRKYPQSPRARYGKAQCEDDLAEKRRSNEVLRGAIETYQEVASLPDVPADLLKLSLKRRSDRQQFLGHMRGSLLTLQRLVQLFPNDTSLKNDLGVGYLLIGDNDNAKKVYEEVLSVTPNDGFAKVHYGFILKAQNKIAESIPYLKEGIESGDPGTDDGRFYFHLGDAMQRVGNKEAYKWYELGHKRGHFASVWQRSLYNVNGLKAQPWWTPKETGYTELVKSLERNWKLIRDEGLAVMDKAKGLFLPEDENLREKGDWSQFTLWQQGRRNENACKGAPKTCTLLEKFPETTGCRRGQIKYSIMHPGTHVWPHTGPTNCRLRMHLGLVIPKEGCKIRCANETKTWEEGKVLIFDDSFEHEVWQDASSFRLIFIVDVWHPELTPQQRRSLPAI
Description: (§1) KDM4E was used as a representative JmjC KDM; it catalyzes the demethylation of histone 3 (H3) N^ε-di- and trimethylated Lys9 (H3K9me3/me2), [11], [12].
(§2) 2OG oxygenases were produced and purified as described in the cited literature, the peptide substrate for AspH was synthesized according to the cited literature while the peptide substrates for FIH and KDM4E were obtained from GL Biochem (Shanghai) Ltd (Shanghai, China). All peptide were prepared with C-terminal amides.

[2] = target: recombinant human N-terminally His6-tagged RIOX2_26–465 (Homo sapiens, UniProt Q8IUF8); assay: SPE-MS inhibition assay, RIOX2 (peptide hydroxylation); conditions: n = 2, mean ± SD, inactive = no inhibition at 100 – 0.002 μM; for IC50: 0.15 μM His6-RIOX2_26–465, 5.0 μM RPL27A31–49 peptide; for IC50 RIOX2: […] His6-RIOX2_26–465, 5.0 μM RPL27A31–49 peptide
KDM4E = target: T2, KDM4E (Homo sapiens, UniProt B2RXH2); assay: SPE-MS inhibition assay, KDM4E (peptide demethylation); conditions: 10.0 μM H3_1–15K9me3, n = 2, mean ± SD, inactive = no inhibition at 100 – 0.002 μM
T2 sequence (B2RXH2 1-506): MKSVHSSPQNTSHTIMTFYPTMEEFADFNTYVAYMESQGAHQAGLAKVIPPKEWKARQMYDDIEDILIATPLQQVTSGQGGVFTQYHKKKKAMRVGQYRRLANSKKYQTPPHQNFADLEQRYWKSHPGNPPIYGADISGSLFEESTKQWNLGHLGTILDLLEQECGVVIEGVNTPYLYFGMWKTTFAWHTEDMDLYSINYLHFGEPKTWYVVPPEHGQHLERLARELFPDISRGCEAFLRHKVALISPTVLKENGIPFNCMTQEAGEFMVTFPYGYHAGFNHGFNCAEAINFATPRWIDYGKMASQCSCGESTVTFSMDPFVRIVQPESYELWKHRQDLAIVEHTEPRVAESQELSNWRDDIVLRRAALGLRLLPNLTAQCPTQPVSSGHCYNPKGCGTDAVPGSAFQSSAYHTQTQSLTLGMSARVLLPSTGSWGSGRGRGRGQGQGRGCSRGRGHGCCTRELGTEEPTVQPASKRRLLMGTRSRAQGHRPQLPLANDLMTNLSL
Description: as §1, §2

[3] = target: T3, N-terminally His6-tagged FIH (Homo sapiens, UniProt Q9NWT6); assay: SPE-MS inhibition assay, FIH (peptide hydroxylation); conditions: 5.0 μM HIF-1α CAD (788–822), n = 2, mean ± SD, inactive = no inhibition at 100 – 0.002 μM
T3 construct: His6 (N); made in house
Description: as §1, §2

recombinant human N-terminally His6-tagged RIOX2_26–465, sequence (Q8IUF8 26-465): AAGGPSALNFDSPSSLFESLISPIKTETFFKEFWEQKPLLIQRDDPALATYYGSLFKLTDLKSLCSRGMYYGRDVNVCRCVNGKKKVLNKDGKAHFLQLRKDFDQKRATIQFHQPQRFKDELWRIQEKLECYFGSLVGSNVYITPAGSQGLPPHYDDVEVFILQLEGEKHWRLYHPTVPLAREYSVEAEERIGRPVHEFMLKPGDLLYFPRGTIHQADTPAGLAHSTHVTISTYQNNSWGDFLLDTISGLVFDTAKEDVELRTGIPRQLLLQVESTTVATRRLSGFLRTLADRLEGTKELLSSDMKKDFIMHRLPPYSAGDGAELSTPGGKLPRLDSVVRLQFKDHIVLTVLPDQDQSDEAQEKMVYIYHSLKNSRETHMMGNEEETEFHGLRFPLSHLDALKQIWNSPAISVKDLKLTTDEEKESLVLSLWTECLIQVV
T3 sequence (Q9NWT6 whole entry): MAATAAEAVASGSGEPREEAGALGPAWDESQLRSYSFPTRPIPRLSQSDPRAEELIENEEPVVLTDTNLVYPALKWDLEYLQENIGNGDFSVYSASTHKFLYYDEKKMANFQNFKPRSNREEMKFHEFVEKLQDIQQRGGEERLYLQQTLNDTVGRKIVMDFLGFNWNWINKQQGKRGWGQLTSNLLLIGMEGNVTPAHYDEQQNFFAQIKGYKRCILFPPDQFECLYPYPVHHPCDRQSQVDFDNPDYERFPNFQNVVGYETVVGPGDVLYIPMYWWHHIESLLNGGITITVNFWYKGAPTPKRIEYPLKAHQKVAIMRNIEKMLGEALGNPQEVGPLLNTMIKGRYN

SMILES | IC50 [1] [nM] | IC50 [2] [nM] | IC50 (KDM4E) [nM] | IC50 [3] [nM] | IC50 RIOX2 [2] | IC50 KDM4E (KDM4E) | IC50 FIH [3]
O=C(O)c1ccnc(C(=O)O)c1 [2,4-PDCA, pyridine-2,4-dicarboxylate, reference compound] | ~30 |  |  |  |  |  | 
O=C(O)c1ccnc(C(=O)O)c1F [compound 7, 3-Fluoropyridine-2,4-dicarboxylic acid] | 110 ± 10 | > 50000 | 1300 ± 200 | > 50000 |  |  | 
O=C(O)c1cc(C(=O)O)c(F)cn1 [compound 8, 5-Fluoropyridine-2,4-dicarboxylic acid] | 50 ± 10 | > 50000 | 1600 ± 300 | > 50000 |  |  | 
O=C(O)c1ccnc(C(=O)O)c1C(F)(F)F [compound 13, 3-Trifluoromethylpyridine-2,4-dicarboxylic acid] | > 50000 |  |  |  | ^d)inactive | ^d)inactive | ^d)inactive
O=C(O)c1cc(C(=O)O)c(C(F)(F)F)cn1 [compound 14, 5-Trifluoromethylpyridine-2,4-dicarboxylic acid] | 4200 ± 1000 |  |  |  | ^d)inactive | ^d)inactive | ^d)inactive
